Laboratory results reported in ChEMBL document CHEMBL1201862, “PubChem BioAssay data set” (2004).
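Five compound concentrations were applied to cells in 96-well plates for 48 hours; endpoints were derived by simple linear interpolation of the resulting dose-response curve. GI50 is the concentration that inhibits growth by half.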 The source made the active and inactive calls. Rule as the data show it: active = GI50 up to about 1.1 µM and inactive = higher.

What was measured:
Assay in all cases: NCI anticancer screen, dose series, 48 h
[1] = tested on: SF-295
[2] = tested on: SF-539
[3] = tested on: A549
[4] = tested on: SW-620
[5] = tested on: K562
[6] = tested on: SNB-19
[7] = tested on: NCI-H226
[8] = tested on: M14
[9] = tested on: LOX IMVI
[10] = tested on: U-251
[11] = tested on: RPMI-8226
[12] = tested on: MOLT-4
[13] = tested on: MDA-N
[14] = tested on: HCT-15
[15] = tested on: OVCAR-3
[16] = tested on: HT-29
[17] = tested on: CAKI-1
[18] = tested on: UACC-62
[19] = tested on: EKVX
[20] = tested on: SNB-75
[21] = tested on: ACHN
[22] = tested on: A498
[23] = tested on: NCI-H460
[24] = tested on: UACC-257
[25] = tested on: HOP-62
[26] = tested on: SR
[27] = tested on: BT-549
[28] = tested on: KM12
[29] = tested on: NCI-H23
[30] = tested on: MDA-MB-231
[31] = tested on: OVCAR-8
[32] = tested on: OVCAR-4
[33] = tested on: NCI-H522
[34] = tested on: HCC 2998
[35] = tested on: SN12C
[36] = tested on: TK-10
[37] = tested on: HOP-92
[38] = tested on: COLO 205
[39] = tested on: Hs-578T
[40] = tested on: HCT-116
[41] = tested on: IGROV-1
[42] = tested on: PC-3
[43] = tested on: NCI/ADR-RES
[44] = tested on: Malme-3M
[45] = tested on: UO-31
[46] = tested on: SK-MEL-28
[47] = tested on: MDA-MB-435
[48] = tested on: CCRF-CEM
[49] = tested on: 786-0
[50] = tested on: SK-OV-3
[51] = tested on: SK-MEL-5
[52] = tested on: MCF7
[53] = tested on: SK-MEL-2
[54] = tested on: HL-60
[55] = tested on: DU-145
[56] = tested on: OVCAR-5
[57] = tested on: T47D
[58] = tested on: SF-268
[59] = tested on: RXF 393

COc1ccc(C2=NOC(N)(c3ccc(OC)cc3)C2)cc1 (stereo not given)
GI50 [1]: > 100 µM (inactive)
GI50 [2]: > 100 µM (inactive)
GI50 [3]: > 100 µM (inactive)
GI50 [4]: > 100 µM (inactive)
GI50 [5]: > 100 µM (inactive)
GI50 [6]: > 100 µM (inactive)
GI50 [7]: > 100 µM (inactive)
GI50 [8]: > 100 µM (inactive)
GI50 [9]: > 100 µM (inactive)
GI50 [10]: > 100 µM (inactive)
GI50 [11]: > 100 µM (inactive)
GI50 [12]: > 100 µM (inactive)
GI50 [13]: > 100 µM (inactive)
GI50 [14]: > 100 µM
GI50 [15]: > 100 µM (inactive)
GI50 [16]: > 100 µM (inactive)
GI50 [17]: > 100 µM (inactive)
GI50 [18]: > 100 µM (inactive)
GI50 [19]: > 100 µM (inactive)
GI50 [20]: > 100 µM (inactive)
GI50 [21]: > 100 µM (inactive)
GI50 [22]: 29 µM (inactive)
GI50 [23]: > 100 µM (inactive)
GI50 [24]: > 100 µM (inactive)
GI50 [25]: 64.7 µM (inactive)
GI50 [26]: > 100 µM (inactive)
GI50 [27]: > 100 µM (inactive)
GI50 [28]: 30.8 µM (inactive)
GI50 [29]: > 100 µM (inactive)
GI50 [30]: 81.5 µM (inactive)
GI50 [31]: > 100 µM (inactive)
GI50 [32]: 86.5 µM (inactive)
GI50 [33]: > 100 µM (inactive)
GI50 [34]: > 100 µM (inactive)
GI50 [35]: > 100 µM (inactive)
GI50 [36]: > 100 µM (inactive)
GI50 [37]: > 100 µM (inactive)
GI50 [38]: > 100 µM (inactive)
GI50 [39]: 81.1 µM (inactive)
GI50 [40]: > 100 µM (inactive)
GI50 [41]: > 100 µM (inactive)
GI50 [42]: > 100 µM (inactive)
GI50 [43]: > 100 µM (inactive)
GI50 [44]: 66.5 µM (inactive)
GI50 [45]: > 100 µM (inactive)
GI50 [46]: > 100 µM (inactive)
GI50 [47]: > 100 µM (inactive)
GI50 [48]: > 100 µM (inactive)
GI50 [49]: 90.8 µM (inactive)
GI50 [50]: > 100 µM (inactive)
GI50 [51]: 56.9 µM (inactive)
GI50 [52]: > 100 µM (inactive)
GI50 [53]: > 100 µM (inactive)
GI50 [54]: 38.2 µM (inactive)
GI50 [55]: > 100 µM (inactive)
GI50 [56]: > 100 µM (inactive)

[N-]=[N+]=NC1=C(C(=O)c2ccccc2)C(=O)c2cccc3cccc1c23
GI50 [1]: 42.3 µM (inactive)
GI50 [2]: 49.3 µM (inactive)
GI50 [3]: 45.2 µM (inactive)
GI50 [4]: > 100 µM (inactive)
GI50 [5]: 54.5 µM (inactive)
GI50 [6]: 28.1 µM (inactive)
GI50 [7]: 36.4 µM (inactive)
GI50 [8]: 49.9 µM (inactive)
GI50 [10]: 21.2 µM (inactive)
GI50 [11]: 37.2 µM (inactive)
GI50 [12]: 23 µM (inactive)
GI50 [13]: 64.3 µM (inactive)
GI50 [15]: 30.5 µM (inactive)
GI50 [16]: 51.2 µM (inactive)
GI50 [17]: 40.6 µM (inactive)
GI50 [18]: 31.3 µM (inactive)
GI50 [19]: 19.1 µM (inactive)
GI50 [20]: 15.8 µM (inactive)
GI50 [21]: 37.7 µM (inactive)
GI50 [24]: 48.8 µM (inactive)
GI50 [25]: 17.1 µM (inactive)
GI50 [26]: 10.6 µM (inactive)
GI50 [27]: 44.8 µM (inactive)
GI50 [28]: 25.1 µM (inactive)
GI50 [29]: 51.3 µM (inactive)
GI50 [57]: 78.3 µM (inactive)
GI50 [30]: 23.4 µM (inactive)
GI50 [31]: 37 µM (inactive)
GI50 [32]: 39.5 µM (inactive)
GI50 [33]: 23 µM (inactive)
GI50 [35]: 63 µM (inactive)
GI50 [36]: 21.9 µM (inactive)
GI50 [37]: 28.4 µM (inactive)
GI50 [38]: > 100 µM (inactive)
GI50 [39]: 20.7 µM (inactive)
GI50 [40]: 72.1 µM (inactive)
GI50 [41]: 10.1 µM (inactive)
GI50 [42]: 49.2 µM (inactive)
GI50 [58]: 17.1 µM (inactive)
GI50 [43]: 67.3 µM (inactive)
GI50 [44]: 46.7 µM (inactive)
GI50 [45]: 26.2 µM (inactive)
GI50 [46]: 66.7 µM (inactive)
GI50 [47]: 51.5 µM (inactive)
GI50 [48]: 21.4 µM (inactive)
GI50 [49]: 25.3 µM (inactive)
GI50 [59]: 22.4 µM (inactive)
GI50 [50]: 26.6 µM (inactive)
GI50 [51]: 44.2 µM (inactive)
GI50 [52]: 6.79 µM (inactive)
GI50 [53]: 21.8 µM (inactive)
GI50 [56]: > 100 µM (inactive)

CC(=O)c1cc2ccccc2oc1=O [3-ACETYLCOUMARIN]
GI50 [1]: > 100 µM (inactive)
GI50 [2]: > 100 µM (inactive)
GI50 [3]: > 100 µM (inactive)
GI50 [4]: > 100 µM (inactive)
GI50 [5]: > 100 µM (inactive)
GI50 [6]: > 100 µM (inactive)
GI50 [7]: > 100 µM (inactive)
GI50 [8]: > 100 µM (inactive)
GI50 [9]: > 100 µM (inactive)
GI50 [10]: > 100 µM (inactive)
GI50 [11]: > 100 µM (inactive)
GI50 [12]: > 100 µM (inactive)
GI50 [13]: > 100 µM (inactive)
GI50 [14]: > 100 µM
GI50 [15]: > 100 µM (inactive)
GI50 [16]: > 100 µM (inactive)
GI50 [17]: > 100 µM (inactive)
GI50 [19]: > 100 µM (inactive)
GI50 [20]: > 100 µM (inactive)
GI50 [21]: > 100 µM (inactive)
GI50 [22]: > 100 µM (inactive)
GI50 [23]: > 100 µM (inactive)
GI50 [24]: > 100 µM (inactive)
GI50 [25]: > 100 µM (inactive)
GI50 [26]: > 100 µM (inactive)
GI50 [27]: > 100 µM (inactive)
GI50 [28]: > 100 µM (inactive)
GI50 [29]: > 100 µM (inactive)
GI50 [30]: > 100 µM (inactive)
GI50 [31]: > 100 µM (inactive)
GI50 [32]: > 100 µM (inactive)
GI50 [33]: > 100 µM (inactive)
GI50 [34]: > 100 µM (inactive)
GI50 [35]: > 100 µM (inactive)
GI50 [36]: > 100 µM (inactive)
GI50 [37]: 48.8 µM (inactive)
GI50 [38]: > 100 µM (inactive)
GI50 [39]: > 100 µM (inactive)
GI50 [40]: > 100 µM (inactive)
GI50 [41]: > 100 µM (inactive)
GI50 [42]: > 100 µM (inactive)
GI50 [58]: > 100 µM (inactive)
GI50 [43]: > 100 µM (inactive)
GI50 [44]: > 100 µM (inactive)
GI50 [45]: 92.3 µM (inactive)
GI50 [46]: > 100 µM (inactive)
GI50 [47]: > 100 µM (inactive)
GI50 [48]: > 100 µM (inactive)
GI50 [49]: > 100 µM (inactive)
GI50 [59]: > 100 µM (inactive)
GI50 [51]: > 100 µM (inactive)
GI50 [52]: 36.2 µM (inactive)
GI50 [53]: > 100 µM (inactive)
GI50 [54]: > 100 µM (inactive)
GI50 [55]: > 100 µM (inactive)
GI50 [56]: > 100 µM (inactive)

O=C1NC(=O)C2(CCC(O)C2)c2cc[n+]([O-])cc21 (stereo not given)
GI50 [1]: > 100 µM (inactive)
GI50 [2]: > 100 µM (inactive)
GI50 [3]: > 100 µM (inactive)
GI50 [4]: > 100 µM (inactive)
GI50 [5]: > 100 µM (inactive)
GI50 [6]: > 100 µM (inactive)
GI50 [7]: > 100 µM (inactive)
GI50 [8]: > 100 µM (inactive)
GI50 [9]: > 100 µM (inactive)
GI50 [10]: > 100 µM (inactive)
GI50 [11]: > 100 µM (inactive)
GI50 [12]: > 100 µM (inactive)
GI50 [13]: > 100 µM (inactive)
GI50 [14]: > 100 µM
GI50 [15]: > 100 µM (inactive)
GI50 [16]: > 100 µM (inactive)
GI50 [17]: > 100 µM (inactive)
GI50 [18]: > 100 µM (inactive)
GI50 [19]: 71.8 µM (inactive)
GI50 [20]: 60.1 µM (inactive)
GI50 [21]: > 100 µM (inactive)
GI50 [22]: > 100 µM (inactive)
GI50 [23]: > 100 µM (inactive)
GI50 [24]: > 100 µM (inactive)
GI50 [25]: > 100 µM (inactive)
GI50 [26]: > 100 µM (inactive)
GI50 [27]: > 100 µM (inactive)
GI50 [28]: > 100 µM (inactive)
GI50 [29]: > 100 µM (inactive)
GI50 [57]: > 100 µM (inactive)
GI50 [30]: > 100 µM (inactive)
GI50 [31]: > 100 µM (inactive)
GI50 [32]: > 100 µM (inactive)
GI50 [33]: > 100 µM (inactive)
GI50 [34]: > 100 µM (inactive)
GI50 [35]: > 100 µM (inactive)
GI50 [36]: > 100 µM (inactive)
GI50 [37]: > 100 µM (inactive)
GI50 [38]: > 100 µM (inactive)
GI50 [39]: > 100 µM (inactive)
GI50 [40]: > 100 µM (inactive)
GI50 [41]: > 100 µM (inactive)
GI50 [42]: > 100 µM (inactive)
GI50 [58]: > 100 µM (inactive)
GI50 [44]: > 100 µM (inactive)
GI50 [45]: > 100 µM (inactive)
GI50 [46]: > 100 µM (inactive)
GI50 [47]: > 100 µM (inactive)
GI50 [48]: > 100 µM (inactive)
GI50 [49]: > 100 µM (inactive)
GI50 [59]: > 100 µM (inactive)
GI50 [50]: > 100 µM (inactive)
GI50 [52]: > 100 µM (inactive)
GI50 [53]: > 100 µM (inactive)
GI50 [55]: > 100 µM (inactive)
GI50 [56]: > 100 µM (inactive)
